pEC50: −log10 of the molar value. Starred links: 1 amine or outer side, 2 acyl side, 3 side chain; linkers in the order of their positions; H or OH if unused. Non-standard residues stand in square brackets, D forms with d. Residues, ends and D or L forms follow the SMILES beside them. ξ: configuration not given here. *: point of attachment. C20 diacid = O=C(O)CCCCCCCCCCCCCCCCCCC(=O)*; γGlu = O=C(O)[C@H](CCC(=O)[*:2])N[*:1]; Hyp = O=C(O)[C@@H]1C[C@@H](O)CN1; ξαMeN = CC(N)(CC(N)=O)C(=O)O; AEEA = NCCOCCOCC(=O)O
Target: T1, human amylin receptors (Homo sapiens, UniProt O60896+P30988)
T1 construct: host or cells: CHO-K1/Ga15/AMY3 cells, further stably transfected with a CRE-luciferase plasmid
T1 sequence (P30988 25-474): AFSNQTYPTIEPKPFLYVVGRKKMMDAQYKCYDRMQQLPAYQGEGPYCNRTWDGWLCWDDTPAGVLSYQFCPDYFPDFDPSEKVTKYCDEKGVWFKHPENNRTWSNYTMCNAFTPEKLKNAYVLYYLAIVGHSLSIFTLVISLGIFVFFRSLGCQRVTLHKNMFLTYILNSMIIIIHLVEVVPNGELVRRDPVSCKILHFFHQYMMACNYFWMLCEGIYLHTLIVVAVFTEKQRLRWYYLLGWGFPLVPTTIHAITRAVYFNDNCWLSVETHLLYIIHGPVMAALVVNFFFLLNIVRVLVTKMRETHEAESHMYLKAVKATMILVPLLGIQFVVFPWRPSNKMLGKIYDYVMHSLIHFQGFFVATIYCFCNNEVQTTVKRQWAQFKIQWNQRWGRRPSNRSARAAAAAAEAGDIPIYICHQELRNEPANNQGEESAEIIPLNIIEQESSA
T1 sequence (O60896 24-148 partner): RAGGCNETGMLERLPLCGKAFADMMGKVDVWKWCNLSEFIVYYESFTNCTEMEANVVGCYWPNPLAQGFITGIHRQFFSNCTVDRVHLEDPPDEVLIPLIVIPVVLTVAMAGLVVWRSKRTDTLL
Test: Luciferase assay in stably transfected amylin receptor/CRE-luc CHO cell line
Type: cell-based
Conditions: for Relative activity: EC50 ratio of Cagrilintide to the compound, Cagrilintide 100%; for pEC50: amylin receptor/CRE-luc CHO cells, 24 hours incubation, luminescence
Text: The objective of this assay is to test the potency of derivatives of polypeptides of the present application on human amylin receptors in vitro using a luciferase assay. Using the standard protocol, CHO-K1/Ga15/AMY3 cells (purchased from GenScript, with the calcitonin receptor and the receptor activity modifying peptide (RAMP) constructed already) were transfected with a plasmid containing a luciferase expression cassette driven by multiple copies of cAMP response elements (CREs). The cells were cultured in an F12 medium containing 200 μg/mL Zeocin, 2 μg/mL puromycin, 100 μg/mL hygromycin, and 400 μg/mL G418 to afford a stably transfected amylin receptor/CRE-luc cell line. The lyophilized powder from Example 1 was dissolved in 20 mM phosphate buffer solution with a pH of 7.0, and diluted in a growth medium (F12 culture medium containing 10% FBS) to give a derivative sample with an initial concentration of 10 nM, which was then subjected to a 5-fold serial dilution in the growth medium to obtain seven samples with concentrations between […]. In each well of a white 96-well plate, 50 μL of the tested sample solution was added with a corresponding concentration. The stably transfected amylin receptor/CRE-luc CHO cells were resuspended in the growth medium at a certain density, and 50 μL of the cell suspension was added at a density of about 20000 cells per well to the white 96-well plate containing the tested sample solution. After incubation of 24 hours at 37° C. and 5% CO2, 100 μL of a Luciferase substrate was added to each well, incubated for 3 minutes, and finally was tested for luminescence on SpectraMax L (Molecular Devices) with the software SoftMax Pro 7.0.3 GxP.

| Relative activity [%] | pEC50 | SMILES |
| --- | --- | --- |
| 233 |  | CC[C@H](C)[C@H](NC(=O)[C@@H]1CCCN1C(=O)[C@H](CCCCN)NC(=O)[C@H](CC(C)C)NC(=O)C(C)(CC(N)=O)NC(=O)[C@H](CC(N)=O)NC(=O)[C@H](CO)NC(=O)[C@H](CO)NC(=O)[C@H](Cc1c[nH]cn1)NC(=O)[C@H](CCCNC(=N)N)NC(=O)[C@H](CC(C)C)NC(=O)[C@H](Cc1ccccc1)NC(=O)[C@H](CC(=O)O)NC(=O)[C@H](C)NC(=O)[C@H](CC(C)C)NC(=O)[C@H](CCCNC(=N)N)NC(=O)[C@H](CCC(N)=O)NC(=O)[C@@H](NC(=O)[C@H](C)NC(=O)[C@H](C)NC(=O)[C@@H](NC(=O)[C@H](CO)NC(=O)[C@H](CC(C)C)NC(=O)[C@H](CCC(N)=O)NC(=O)[C@H](CO)NC(=O)[C@H](C)NC(=O)CC[C@H](NC(=O)CCCCCCCCCCCCCCCCCCC(=O)O)C(=O)O)[C@@H](C)O)[C@@H](C)O)C(=O)N[C@@H](CC(C)C)C(=O)N1CCC[C@H]1C(=O)N1CCC[C@H]1C(=O)N[C@H](C(=O)N[C@@H](CC(N)=O)C(=O)N[C@H](C(=O)NCC(=O)N[C@@H](CO)C(=O)N[C@@H](CC(N)=O)C(=O)N[C@H](C(=O)N1C[C@H](O)C[C@H]1C(N)=O)[C@@H](C)O)C(C)C)[C@@H](C)O (some centres unmarked) [M55] ({C20 diacid-γGlu}-ASQLSTAATQRLADFLRHSSN[ξαMeN]LKPILPPTNVGSNT[Hyp]-NH2) |
| 58 | 10.38 | CC[C@H](C)[C@H](NC(=O)[C@H](CC(=O)O)NC(=O)[C@H](CCCNC(=N)N)NC(=O)[C@H](CC(=O)O)NC(=O)[C@H](CCCNC(=N)N)NC(=O)[C@H](CC(=O)O)NC(=O)[C@@H](NC(=O)[C@H](Cc1ccccc1)NC(=O)[C@H](Cc1c[nH]cn1)NC(=O)[C@H](CCCNC(=N)N)NC(=O)[C@H](CC(C)C)NC(=O)[C@H](Cc1ccccc1)NC(=O)[C@H](CC(=O)O)NC(=O)[C@H](C)NC(=O)[C@H](CC(C)C)NC(=O)[C@H](CCCNC(=N)N)NC(=O)[C@H](CCC(N)=O)NC(=O)[C@@H](NC(=O)[C@H](C)NC(=O)[C@H](C)NC(=O)[C@@H](NC(=O)[C@H](CO)NC(=O)[C@H](CC(C)C)NC(=O)[C@H](CCC(N)=O)NC(=O)[C@H](CO)NC(=O)[C@H](C)NC(=O)COCCOCCNC(=O)COCCOCCNC(=O)CC[C@H](NC(=O)CCCCCCCCCCCCCCCCCCC(=O)O)C(=O)O)[C@@H](C)O)[C@@H](C)O)[C@@H](C)O)C(=O)N[C@@H](CC(C)C)C(=O)N1CCC[C@H]1C(=O)N1CCC[C@H]1C(=O)N[C@H](C(=O)N[C@@H](CC(N)=O)C(=O)N[C@H](C(=O)NCC(=O)N[C@@H](CO)C(=O)N[C@@H](CC(N)=O)C(=O)N[C@H](C(=O)N1CCC[C@H]1C(N)=O)[C@@H](C)O)C(C)C)[C@@H](C)O [M16] ({C20 diacid-γGlu-AEEA-AEEA}-ASQLSTAATQRLADFLRHFTDRDRDILPPTNVGSNTP-NH2) |
| 110 | 11.40 | CC[C@H](C)[C@H](NC(=O)[C@H](CC(=O)O)NC(=O)[C@H](CCCNC(=N)N)NC(=O)[C@H](CC(=O)O)NC(=O)[C@H](CCCNC(=N)N)NC(=O)[C@H](CC(=O)O)NC(=O)[C@@H](NC(=O)[C@H](Cc1ccccc1)NC(=O)[C@H](Cc1c[nH]cn1)NC(=O)[C@H](CCCNC(=N)N)NC(=O)[C@H](CC(C)C)NC(=O)[C@H](Cc1ccccc1)NC(=O)[C@H](CC(=O)O)NC(=O)[C@H](C)NC(=O)[C@H](CC(C)C)NC(=O)[C@H](CCCNC(=N)N)NC(=O)[C@H](CCC(N)=O)NC(=O)[C@@H](NC(=O)[C@H](C)NC(=O)[C@H](C)NC(=O)[C@@H](NC(=O)[C@H](CO)NC(=O)[C@H](CC(C)C)NC(=O)[C@H](CCC(N)=O)NC(=O)[C@H](CO)NC(=O)[C@H](C)NC(=O)[C@H](CCC(=O)O)NC(=O)CCCCCCCCCCCCCCCCCCC(=O)O)[C@@H](C)O)[C@@H](C)O)[C@@H](C)O)C(=O)N[C@@H](CC(C)C)C(=O)N1CCC[C@H]1C(=O)N1CCC[C@H]1C(=O)N[C@H](C(=O)N[C@@H](CC(N)=O)C(=O)N[C@H](C(=O)NCC(=O)N[C@@H](CO)C(=O)N[C@@H](CC(N)=O)C(=O)N[C@H](C(=O)N1CCC[C@H]1C(N)=O)[C@@H](C)O)C(C)C)[C@@H](C)O [M11] ({C20 diacid}-EASQLSTAATQRLADFLRHFTDRDRDILPPTNVGSNTP-NH2) |

Source: patent publication US20260265329A1, “POLYPEPTIDE AND DERIVATIVE THEREOF, COMPOSITION, AND USE THEREOF” (HANGZHOU SCIWIND BIOSCIENCES CO., LTD., priority 2023, published 2026)
